Data reported in ChEMBL document CHEMBL1158356, “Synthesis, anti-tuberculosis activity and 3D-QSAR study of amino acid conjugates of 4-(adamantan-1-yl) group containing quinolines” (Eur J Med Chem, 2009).

Experiments:
[1] = system: Mycobacterium tuberculosis; assay: Antimycobacterial activity against isoniazid-resistant Mycobacterium tuberculosis H37Rv ATCC 27294 at 3.125 ug/ml; assay type: functional
[2] = system: Mycobacterium tuberculosis; assay: Antimycobacterial activity against isoniazid-resistant Mycobacterium tuberculosis H37Rv ATCC 27294 at 1 ug/ml; assay type: functional

**Q.** `N=C(N)NCCC[C@H](NC(=O)c1cc(C23CC4CC(CC(C4)C2)C3)c2ccccc2n1)C(=O)NN` was tested. Which inhibition at 3.125 µg/mL [1] did it give?
**A.** Its inhibition at 3.125 µg/mL is 99%.

**Q.** And the inhibition at 1 µg/mL [2]?
**A.** The inhibition at 1 µg/mL was 60%.
